Laboratory results as given in patent EP1117659B1, “SUBSTITUTED 3-CYANOQUINOLINES AS PROTEIN TYROSINE KINASES INHIBITORS” (Wyeth Holdings Corporation, priority 1998, dated 2000).
“And” between values parts separate entries of the source, which are not always exact repeats. Identical values can stand only once. Counter-ions that a name gives are not always drawn. Like-named read-outs stand apart in the source and are kept apart here.

Experiments:
Format in all cases: biochemical
[1] = molecular target: T1, epidermal growth factor receptor kinase (EGF-R Kinase, recombinant enzyme; His-tagged cytoplasmic domain of EGFR) (Homo sapiens, UniProt P00533); test: Inhibition of Epidermal Growth Factor Receptor Kinase (EGF-R) using recombinant enzyme, RR-SRC peptide phosphorylation, 33P-ATP; conditions: for inhibition at 0.5 µM: read-out: %Inh @ 0.5 µM; for IC50: recombinant enzyme, 90 min at room temperature
T1 construct: EGFR cDNA encoding amino acids 645 - 1186 preceded by Met-Ala-(His)6; Met-Ala-(His)6 (N); made in house; host or cells: Sf9 insect cells, recombinant baculovirus vHcEGFR52
Procedure: Representative test compounds were evaluated for their ability to inhibit the phosphorylation of the tyrosine residue of a peptide substrate catalyzed by the enzyme epidermal growth factor receptor kinase. The peptide substrate (RR-SRC) has the sequence arg-arg-leu-ile-glu-asp-ala-glu-tyr-ala-ala-arg-gly. The enzyme used in this test procedure is the His-tagged cytoplasmic domain of EGFR. A recombinant baculovirus (vHcEGFR52) was constructed containing the EGFR cDNA encoding amino acids 645 - 1186 preceded by Met-Ala-(His)6. Sf9 cells in 100 mm plates were infected at an moi of 10 pfu/cell and cells were harvested 48 h post infection. A cytoplasmic extract was prepared using 1% Triton X-100 and applied to Ni-NTA column. After washing the column with 20 mM imidazole, HcEGFR was eluted with 250 mM imidazole (in 50 mM Na2HPO4, pH 8.0, 300 mM NaCl). Fractions collected were dialyzed against 10 mM HEPES, pH 7.0, 50 mM NaCl, 10% glycerol, lug/mL antipain and leupeptin and 0.1 mM Pefabloc SC. The protein was frozen in dry ice/methanol and stored -70°C.
Test compounds were made into 10 mg/mL stock solutions in 100% dimethylsulfoxide (DMSO). Prior to experiment, stock solutions were diluted to 500 uM with 100% DMSO and then serially diluted to the desired concentration with HEPES buffer (30 mM HEPES pH 7.4).
For the enzyme reaction, 10 uL of each inhibitor (at various concentrations) were added to each well of a 96-well plate. To this was added 3 uL of enzyme (1:10 dilution in 10mM HEPES, pH 7.4 for final cone. of 1:120). This was allowed to sit for 10 min on ice and was followed by the addition of 5 ul peptide (80 uM final cone.), 10ul of 4X Buffer (Table A), 0.25 uL ^33P-ATP and 12 uL H2O. The reaction was allowed to run for 90 min at room temperature and was followed by spotting the entire volume on to precut P81 filter papers. The filter discs were washed 2X with 0.5% phosphoric acid and radioactivity was measured using a liquid scintillation counter.
The inhibition data for representative compounds of the invention are shown below in TABLE 1. […] The % inhibition of the test compound was determined for at least three different concentrations and the IC50 value was evaluated from the dose response curve. […] CPM(control) is in units of counts per minute and was a number expressing the amount of radiolabled ATP (γ-^33P) incorporated into the RR-SRC peptide substrate by the enzyme after 90 minutes at room temperature in the absence of test compound as measured by liquid scintillation counting. The CPM values were corrected for the background counts produced by ATP in the absence of the enzymatic reaction. […]

[2] = molecular target: Recombinant human MEK 1 (MAPKK) / recombinant human ERK2 (MAPK) (Mek-Erk) (Homo sapiens, UniProt P28482+Q02750); test: Mitogen Activated Protein Kinase (MAPK) assay, two component coupled Mek-Erk test
Sequence of Recombinant human MEK 1 (MAPKK) / recombinant human ERK2 (MAPK) (Mek-Erk) (P28482 2-360): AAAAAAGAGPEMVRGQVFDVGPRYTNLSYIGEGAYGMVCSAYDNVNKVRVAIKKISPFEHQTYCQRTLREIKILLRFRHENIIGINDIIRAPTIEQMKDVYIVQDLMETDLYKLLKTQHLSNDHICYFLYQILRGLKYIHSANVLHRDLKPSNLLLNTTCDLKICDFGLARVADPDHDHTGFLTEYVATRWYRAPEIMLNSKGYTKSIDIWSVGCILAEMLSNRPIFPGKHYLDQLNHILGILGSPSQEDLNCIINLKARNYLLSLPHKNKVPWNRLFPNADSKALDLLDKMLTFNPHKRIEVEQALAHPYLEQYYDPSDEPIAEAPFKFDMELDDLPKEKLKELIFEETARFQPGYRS
Sequence of Recombinant human MEK 1 (MAPKK) / recombinant human ERK2 (MAPK) (Mek-Erk) (Q02750 whole entry, the tested form may be a part): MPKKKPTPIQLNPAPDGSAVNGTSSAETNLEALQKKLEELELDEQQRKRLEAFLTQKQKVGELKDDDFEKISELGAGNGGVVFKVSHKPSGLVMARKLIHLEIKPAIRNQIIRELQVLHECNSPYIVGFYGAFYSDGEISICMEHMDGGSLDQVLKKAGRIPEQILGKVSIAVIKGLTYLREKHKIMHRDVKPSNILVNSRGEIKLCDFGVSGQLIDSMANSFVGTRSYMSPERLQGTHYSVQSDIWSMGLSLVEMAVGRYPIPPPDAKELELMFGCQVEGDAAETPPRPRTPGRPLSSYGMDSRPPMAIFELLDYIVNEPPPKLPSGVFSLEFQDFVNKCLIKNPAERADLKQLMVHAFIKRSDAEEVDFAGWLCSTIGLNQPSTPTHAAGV

[3] = molecular target: T2, Kinase insert Domain containing Receptor (KDR: the catalytic domain of the VEGF receptor) (Homo sapiens, UniProt P35968); test: Inhibition of Kinase insert Domain containing Receptor (KDR), radioactive phosphorylation of Glu:Tyr copolymer; conditions: IC50, substrate phosphorylation
T2 construct: KDR: the catalytic domain of the VEGF receptor
T2 sequence (P35968 834-1162 limits assumed): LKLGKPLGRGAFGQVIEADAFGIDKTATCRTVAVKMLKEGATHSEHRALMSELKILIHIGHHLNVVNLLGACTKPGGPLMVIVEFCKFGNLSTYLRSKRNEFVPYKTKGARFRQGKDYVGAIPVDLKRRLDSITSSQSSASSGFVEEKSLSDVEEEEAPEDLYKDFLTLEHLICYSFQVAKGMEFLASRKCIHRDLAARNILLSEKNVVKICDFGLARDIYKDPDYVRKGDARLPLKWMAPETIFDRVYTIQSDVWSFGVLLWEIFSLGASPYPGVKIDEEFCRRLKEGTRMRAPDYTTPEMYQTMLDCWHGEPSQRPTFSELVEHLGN
Procedure: In this standard pharmacological test procedure, KDR protein is mixed, in the presence or absence of a inhibitor compound, with a substrate peptide to be phosphorylated (a copolymer of glutamic acid and tyrosine, E:Y :: 4:1) and other cofactors such as Mg^++ and sodium vanadate (a protein tyrosine phosphatase inhibitor) in an appropriate buffer to maintain pH (7.2). ATP and a radioactive tracer (either P^32- or P^33- labeled ATP) is then add to initiate phosphorylation. After incubation, the radioactive phosphate associated with the acid-insoluble fraction of the assay mixture is then quantified as reflection of substrate phosphorylation. […] Multiple entries for a given compound indication it was tested multiple times.

[4] = molecular target: Epithelial Cell Kinase (ECK) (Homo sapiens, UniProt P29317); test: Inhibition of Epithelial Cell Kinase (ECK), immobilized biotinylated peptide, HRP anti-phosphotyrosine readout; conditions: IC50, substrate phosphorylation
Sequence of Epithelial Cell Kinase (ECK) (P29317 24-976, species assumed): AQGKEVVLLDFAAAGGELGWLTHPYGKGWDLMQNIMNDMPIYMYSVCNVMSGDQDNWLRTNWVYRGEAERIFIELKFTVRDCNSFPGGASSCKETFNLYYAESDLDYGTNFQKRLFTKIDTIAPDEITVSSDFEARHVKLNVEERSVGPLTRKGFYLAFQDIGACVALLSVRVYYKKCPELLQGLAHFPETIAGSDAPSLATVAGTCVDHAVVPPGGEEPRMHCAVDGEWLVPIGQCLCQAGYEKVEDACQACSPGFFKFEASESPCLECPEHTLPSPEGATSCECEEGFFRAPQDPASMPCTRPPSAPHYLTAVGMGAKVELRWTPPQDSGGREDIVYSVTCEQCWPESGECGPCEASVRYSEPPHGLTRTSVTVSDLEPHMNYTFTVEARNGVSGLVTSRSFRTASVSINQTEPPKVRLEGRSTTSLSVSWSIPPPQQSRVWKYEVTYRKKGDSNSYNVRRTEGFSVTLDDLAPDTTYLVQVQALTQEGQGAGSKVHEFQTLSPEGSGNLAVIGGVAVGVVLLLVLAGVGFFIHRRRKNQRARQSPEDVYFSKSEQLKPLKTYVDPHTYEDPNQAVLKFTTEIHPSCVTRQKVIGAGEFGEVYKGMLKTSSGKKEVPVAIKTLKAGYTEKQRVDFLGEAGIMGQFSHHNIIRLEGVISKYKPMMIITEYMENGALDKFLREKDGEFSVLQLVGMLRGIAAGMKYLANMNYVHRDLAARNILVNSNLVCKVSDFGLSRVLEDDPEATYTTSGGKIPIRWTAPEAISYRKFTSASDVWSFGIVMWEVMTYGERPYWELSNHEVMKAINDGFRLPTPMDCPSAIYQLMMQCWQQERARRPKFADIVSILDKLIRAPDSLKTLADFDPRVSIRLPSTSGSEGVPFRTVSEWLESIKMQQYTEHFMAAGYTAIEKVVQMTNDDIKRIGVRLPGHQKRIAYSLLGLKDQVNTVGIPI
Procedure: In this standard pharmacological test procedure, a biotinylated peptide substrate is first immobilized on neutravidin-coated microtiter plates. The test drug, the Epithelial Cell Kinase (ECK), Mg^++, sodium vanadate (a protein tyrosine phosphatase inhibitor), and an appropriate buffer to maintain pH (7.2) are then added to the immobilized substrate-containing microtiter wells. ATP is then added to initiate phosphorylation. After incubation, the assay plates are washed with a suitable buffer leaving behind phosphorylated peptide which is exposed to horse radish peroxidase (HRP)-conjugated anti-phosphotyrosine monoclonal antibody. The antibody-treated plates are washed again and the HRP activity in individual wells is quantified as a reflection of degree of substrate phosphorylation. […] Multiple entries for a given compound indication it was tested multiple times.

Molecule | IC50 [3] | IC50 [1] | IC50 [4] | IC50 ([2]; read-out: Mek-Erk) | further results
4-(2,3-Dihydro-1H-indol-6-ylamino)-6,7-diethoxy-quinoline-3-carbonitrile [Example 96] |  |  |  |  | %Inh @ 0.5 µM ([1]; 0.5 µM concentration of test compound): 6%
CCOc1cc2ncc(C#N)c(Nc3ccc4ncsc4c3)c2cc1OCC [Example 97, 4-(Benzothiazol-6-ylamino)-6,7-diethoxy-quinoline-3-carbonitrile HCl Salt] | > 2.56 µM | > 10 µM | > 2.56 µM |  | IC50 ([2]; read-out: Mek-Erk µM): 55 µM; inhibition at 0.5 µM [1]: 7%
CCOc1cc2ncc(C#N)c(Nc3ccc4c(c3)OCO4)c2cc1OCC [Example 98, 4-(Benzo[1,3]dioxol-5-ylamino)-6,7-diethoxy-quinoline-3-carbonitrile] | 53 µM and > 2.65 µM |  | > 2.65 µM |  | 
COc1cc2ncc(C#N)c(Nc3ccc4c(c3)NCC4)c2cc1OC [Example 113, 4-(2,3-Dihydro-1H-indol-6-ylamino)-6,7-methoxy-quinoline-3-carbonitrile] | 8.66 µM |  |  |  | 
COc1cc2c(Nc3ccc4c(c3)NCC4)c(C#N)cnc2cc1OCCCc1ccncc1 [Example 119, 4-(2,3-Dihydro-1H-indol-6-ylamino)-6-methoxy-7-(3-pyridin-4-yl-propoxy)-quinoline-3-carbonitrile] | 1.55 µM and 2.21 µM |  | 22.1 µM and > 2.21 µM |  | 
N#Cc1cnc2cc3c(cc2c1Nc1ccc2cn[nH]c2c1)OCCO3 [Example 125, 9-(1H-Indazol-6-ylamino)-2,3-dihydro[1,4]dioxino[2,3-g]quinoline-8-carbonitrile] |  |  |  | 35 µM | 
COc1cc2c(Nc3ccc4cn[nH]c4c3)c(C#N)cnc2c(OC)c1OC [Example 128, 4-(1H-Indazol-6-ylamino)-6,7,8-trimethoxy-quinoline-3-carbonitrile] | > 79.9 µM |  | > 53.3 µM | > 100 µM and 100 µM | 
COc1cc2ncc(C#N)c(Nc3cccc4[nH]ccc34)c2cc1OC [Example 136, 4-(1H-Indol-4-ylamino)-6,7-dimethoxy-quinoline-3-carbonitrile] | > 29 µM | > 1 µM | 0.871 µM |  | inhibition at 0.5 µM [1]: 33%
COc1cc2ncc(C#N)c(Nc3ccc4[nH]ncc4c3)c2cc1OC [Example 137, 4-(1H-Indazol-5-ylamino)-6,7-dimethoxy-quinoline-3-carbonitrile] | 29 µM and > 2.9 µM | 0.15 µM | > 2.9 µM |  | 
COc1ccc(OC)c2c(Nc3ccc4cn[nH]c4c3)c(C#N)cnc12 [Example 138, 4-(1H-Indazol-6-ylamino)-5,8-dimethoxy-quinoline-3-carbonitrile] | > 86.9 µM |  | > 29 µM | > 100 µM | 
COc1cc2ncc(C#N)c(Nc3ccc4cn[nH]c4c3)c2cc1OCCCN1CCOCC1 [Example 139, 4-(1H-Indazol-6-ylamino)-7-methoxy-6-(3-morpholin-4-yl-propoxy)-quinoline-3-carbonitrile hydrochloride] | 21.8 µM and > 2.18 µM |  | > 2.18 µM |  | IC50 ([2]; read-out: Mek-Erk µM): 15 µM
COc1cc2ncc(C#N)c(Nc3ccc4nn[nH]c4c3)c2cc1OCCCN1CCOCC1 [Example 140, 4-(3H-Benzotriazol-5-ylamino)-7-methoxy-6-(3-morpholin-4-yl-propoxy)-quinoline-3-carbonitrile hydrochloride] |  |  | 2.18 µM |  | IC50 ([2]; read-out: Mek-Erk µM, hydrochloride): 22 µM and 15 µM
COc1ccc2c(Nc3ccc4cn[nH]c4c3)c(C#N)cnc2c1 [Example 143, 4-(1H-Indazol-6-ylamino)-7-methoxy-quinoline-3-carbonitrile] | 47.6 µM and > 3.17 µM |  | > 31.7 µM | 2 µM | 
COc1ccc2c(Nc3ccc4[nH]ccc4c3)c(C#N)cnc2c1 [Example 146, 4-(1H -Indol-5-ylamino)-7-methoxy-quinoline-3-carbonitrile] |  |  |  | 3 µM | 
COc1cc2ncc(C#N)c(Nc3ccc4[nH]ccc4c3)c2cc1OC [Example 150, 4-(1H -Indol-5-ylamino)-6,7-Dimethoxy-quinoline-3-carbonitrile] | 0.581 µM | 0.0015 µM and 0.004 µM | > 29 µM |  | 
COc1cc2ncc(C#N)c(Nc3ccc4[nH]cnc4c3)c2cc1OC [Example 151, 4-(1H -Benzoimidazol-5-ylamino)-6,7-dimethoxy-quinoline-3-carbonitrile] | 29 µM | > 1 µM | > 29 µM |  | inhibition at 0.5 µM [1]: 34%
COc1cc2ncc(C#N)c(Nc3ccc4[nH]c(C)nc4c3)c2cc1OC [Example 152, 6,7-Dimethoxy-4-(2-methyl-1H -benzoimidazol-5-ylamino)-quinoline-3-carbonitrile] |  | > 1 µM | > 27.8 µM | > 100 µM | inhibition at 0.5 µM [1]: 24%
COc1cc2ncc(C#N)c(Nc3ccc(Cl)c4ccccc34)c2cc1OC [Example 154, 4-(4-Chloro-naphthalen-1-ylamino)-6,7 -Dimethoxy-quinoline-3-carbonitrile] | 12.8 µM and > 2.57 µM |  | 0.77 µM |  | 
COc1cc2ncc(C#N)c(Nc3cccc4c3CCCC4)c2cc1OC [Example 155, 6,7-Dimethoxy-4-(5,6,7,8,- tetrahydro-naphthalen-1-ylamino)-quinoline-3-carbonitrile] |  |  |  | 4 µM | 
COc1cc2c(Nc3ccc4cn[nH]c4c3)c(C#N)cnc2cc1OCCCl [Example 166, 7-(2-Chloroethoxy)-4-(1H-indazol-6-ylamino)-6-methoxyquinoline-3-carbonitrile] | > 2.54 µM |  | 0.762 µM |  | 
COc1cc2c(Nc3ccc4cn[nH]c4c3)c(C#N)cnc2cc1OCCN(C)C [Example 167, 7-(2-Dimethylaminoethoxy)-4-(1H-indazol-6-ylamino)-6-methoxyquinoline-3-carbonitrile] |  | > 1 µM |  | 8 µM | inhibition at 0.5 µM [1]: 0%
COc1cc2c(Nc3ccc4cn[nH]c4c3)c(C#N)cnc2cc1OCCN1CCOCC1 [Example 168, 4-(1H-Indazol-6-ylamino)-6-methoxy-7-(2-morpholin-4-yl-ethoxy)quinoline-3-carbonitrile] | 4.5 µM | > 1 µM | > 22.5 µM |  | inhibition at 0.5 µM [1]: 1%
CCOc1cc2ncc(C#N)c(Nc3ccc(Sc4nccn4C)c(Cl)c3)c2cc1OCC [Example 172, 4-[3-Chloro-4-(1-methyl-2-imidazolylthio)phenylamino]-6,7-diethoxy-3-quinolinecarbonitrile] |  | 0.09 µM |  |  | 
COc1cc2ncc(C#N)c(Nc3ccc(Sc4nccn4C)c(Cl)c3)c2cc1OC [Example 173, 4-[3-Chloro-4-(1-methyl-2-imidazolylthio)phenylamino]-6,7-dimethoxy-3-quinolinecarbonitrile] |  | 0.5 µM |  |  | 
C=CC(=O)Nc1ccc2ncc(C#N)c(Nc3ccc(Sc4nccn4C)c(Cl)c3)c2c1 [Example 176, N-{4-[3-Chloro-4-(1-methyl-1H-imidazol-2-ylsulfanyl)-phenylamino]-3-cyano-quinolin-6-yl}-acrylamide] |  | 0.01 µM |  |  | 
